Reference: US11124785B2, “Rothia subtilisins, S8A family proteases, as therapeutic enzymes for application in gluten intolerance disorders” (TRUSTEES OF BOSTON UNIVERSITY, priority 2016, dated 2021)

B1: subtilisin A: subtilisin A from Bacillus licheniformis (Sigma) (protein, listed as Bacillus licheniformis)
chain: MMRKKSFWLGMLTAFMLVFTMAFSDSASAAQPAKNVEKDYIVGFKSGVKTASVKKDIIKESGGKVDKQFRIINAAKAKLDKEALKEVKNDPDVAYVEEDHVAHALAQTVPYGIPLIKADKVQAQGFKGANVKVAVLDTGIQASHPDLNVVGGASFVAGEAYNTDGNGHGTHVAGTVAALDNTTGVLGVAPSVSLYAVKVLNSSGSGTYSGIVSGIEWATTNGMDVINMSLGGPSGSTAMKQAVDNAYARGVVVVAAAGNSGSSGNTNTIGYPAKYDSVIAVGAVDSNSNRASFSSVGAELEVMAPGAGVYSTYPTSTYATLNGTSMASPHVAGAAALILSKHPNLSASQVRNRLSSTATYLGSSFYYGKGLINVEAAAQ

How the values were obtained:
Z-YPQ-pNA = assay: Hydrolysis of paranitroanilide-derivatized substrate Z-YPQ-pNA; format: biochemical; conditions: substrate 200 μM, enzyme 1 μg/ml, pH 8.0; second most rapid after Suc-AAPF-pNA
Description: FIG. 4A and FIG. 4B are representative graphs of the hydrolysis of the substrates: Suc-AAPF-pNA (SEQ ID NO: 4), Z-YPQ-pNA, and Z-LPY-pNA, each at 200 μM, by Rmep and subtilisin A, respectively, each at 1 μg/ml.
Hydrolysis of paranitroanilide-derivatized substrates—Paranitroanilide (pNA)-derivatized tripeptide substrates were chemically synthesized at >90% purity (21st Century Biochemicals, Marlborough, Mass.). The substrates obtained were Z-YPQ-pNA, Z-QQP-pNA, Z-LPY-pNA, Z-PFP-pNA, Z-PPF-pNA, where Z=benzyloxycarbonyl, Y=tyrosine, P=proline, Q=glutamine, L=leucine, and F=phenylalanine Suc-AAPF-pNA (SEQ ID NO: 4) was obtained from Sigma, where Suc=N-succinyl and A=alanine. The peptides were dissolved in 75-100% DMSO at 10 mM, and were used at a final concentration of 200 μM in 50 mM TrisHCl pH 8.0. Purified Rothia enzyme or subtilisin A from Bacillus licheniformis (Sigma) were tested at final concentrations of 1 μg/ml. Some experiments were conducted in the presence of inhibitors 4-(2-Aminoethyl) benzenesulfonyl fluoride (AEBSF), Aprotinin, E-64, EDTA, phenylmethanesulfonyl fluoride (PMSF) and Eglin C, which were tested at final concentrations of 10 mM, 0.08 mM, 0.1 mM, 1.5 mM, 1 mM, and 0.06-1.2 μM, respectively. […] Substrate hydrolysis was monitored for 10 h at 405 nm using a Genios microtiter plate reader (Tecan, Männedorf, Switzerland) in the kinetic mode at 37° C.

Z-QQP-pNA = assay: Hydrolysis of paranitroanilide-derivatized substrate Z-QQP-pNA; format: biochemical; conditions: substrate 200 μM, pH 8.0 (data not shown)
Description: (§1) Hydrolysis of paranitroanilide-derivatized substrates—Paranitroanilide (pNA)-derivatized tripeptide substrates were chemically synthesized at >90% purity (21st Century Biochemicals, Marlborough, Mass.). The substrates obtained were Z-YPQ-pNA, Z-QQP-pNA, Z-LPY-pNA, Z-PFP-pNA, Z-PPF-pNA, where Z=benzyloxycarbonyl, Y=tyrosine, P=proline, Q=glutamine, L=leucine, and F=phenylalanine Suc-AAPF-pNA (SEQ ID NO: 4) was obtained from Sigma, where Suc=N-succinyl and A=alanine. The peptides were dissolved in 75-100% DMSO at 10 mM, and were used at a final concentration of 200 μM in 50 mM TrisHCl pH 8.0. Purified Rothia enzyme or subtilisin A from Bacillus licheniformis (Sigma) were tested at final concentrations of 1 μg/ml. Some experiments were conducted in the presence of inhibitors 4-(2-Aminoethyl) benzenesulfonyl fluoride (AEBSF), Aprotinin, E-64, EDTA, phenylmethanesulfonyl fluoride (PMSF) and Eglin C, which were tested at final concentrations of 10 mM, 0.08 mM, 0.1 mM, 1.5 mM, 1 mM, and 0.06-1.2 μM, respectively. Enzymes were preincubated with the inhibitors for 20 min before adding Suc-AAPF-pNA (SEQ ID NO: 4). Substrate hydrolysis was monitored for 10 h at 405 nm using a Genios microtiter plate reader (Tecan, Männedorf, Switzerland) in the kinetic mode at 37° C.

Z-PPF-pNA = assay: Hydrolysis of paranitroanilide-derivatized substrate Z-PPF-pNA; format: biochemical; conditions: fifty-fold increased enzyme concentrations (data not shown)
Description: as §1

mixed gliadins = assay: Degradation of mixed gliadins (SDS-PAGE); format: biochemical, wheat; conditions: gliadins 250 μg/ml, enzyme 57 μg/ml
Description: FIG. 5A is a representative SDS-PAGE gel of non-digested gliadins (control) and Rmep-treated gliadins. Gliadins (250 μg/ml) in 50 mM Tris/HCl pH 8.0 were incubated with Rmep at 57 μg/ml. After 0, 15 min, 30 min and 2 h incubation 100 μl aliquots were removed, boiled and analyzed by SDS-PAGE and stained with COOMASSIE Brilliant Blue. The bold arrow (left) points to the position of the major band in the gliadin preparation; the thin arrow (right) to the 125 kDa band in the Rmep preparation, and the dotted arrows (right) to the gliadin degradation fragments.
FIG. 6A is a representative SDS-PAGE gel of non-digested gliadins (control) and subtilisin A-treated gliadins. Gliadins (250 μg/ml) in 50 mM Tris/HCl pH 8.0 were incubated with subtilisin A at 57 μg/ml. Experiments were conducted as described in the legend of FIG. 5 with subtilisin A instead of Rmep.
FIG. 8A is a representative SDS-PAGE gel of non-digested gliadins (control) and NattoK-treated gliadins. Mixed gliadins (G, 250 μg/ml) were incubated with NattoK (57 μg/ml) for 0, 15, 30 and 120 min. Left four lanes: controls without enzyme or gliadins, respectively, each at t=0 and 120 min. Arrow points to the major components in the gliadin mixture represented by α and γ-gliadins containing most of the immunogenic epitopes.
(§2) Degradation of mixed gliadins and the 33-mer peptide—Mixed gliadins were obtained from Sigma. A synthetic highly immunogenic α-gliadin derived 33-mer peptide (26) was synthesized at a purity of >90% (21st Century Biochemicals). Mixed gliadins or the 33-mer peptide (each at final concentration 250 μg/ml) were incubated with Rmep or subtilisin A (each at 57 μg/ml) in 50 mM TrisHCl, pH 8.0. After t=0, 15 min, 30 min, and 2 h, 100 μl sample aliquots were removed and boiled. Gliadin degradation was assessed by 4-12% SDS-PAGE followed by Coomassie staining, and 33-mer degradation was determined by RP-HPLC.

[1] = test system: α-gliadin derived 33-mer peptide; assay: Degradation of the 33-mer peptide (RP-HPLC); format: biochemical; conditions: 33-mer 250 μg/ml, enzyme 57 μg/ml
Description: FIG. 8D is a representative chromatogram of the RP-HPLC analysis of the degradation of the gliadin-derived 33-mer (250 μg/ml) incubated for 0, 15, 30 and 120 min with NattoK 57 μg/ml).
as §2
Reversed-phase high performance liquid chromatography (RP-HPLC)—Separation of the 33-mer peptide and its fragments was achieved by RP-HPLC, using buffer A (0.1% trifluoroacetic acid) and buffer B (0.1% trifluoroacetic acid in 80% acetonitrile) at a gradient of 0-55% buffer B over 75 min time interval. The equipment used was an HPLC Model 715 (Gilson, Middleton, Wis.) and a C-18 column (TSK-GEL […], ODS-120T, TOSOHaas, Montgomeryville, Pa.) (22, 25).

[2] = test system: G12 epitopes (QPQLPY) in mixed gliadins; assay: G12 ELISA, gluten epitope elimination in gliadin digests; format: biochemical; conditions: gliadins 250 μg/ml, enzyme 57 μg/ml
Description: FIG. 8E and FIG. 8F show the assessment of the survival of epitopes in the gliadin-NattoK degradation mixture employing the R5 ELISA (FIG. 8E) or G12 ELISA (FIG. 8F) assays. Epitope abolishment in Mixed gliadins (250 μg/ml) were incubated with NattoK (57 μg/ml) for 0, 15, 30 and 120 min and then assayed by the R5 ELISA or G12 ELISA.
R5 and G12 ELISA assays—Gluten epitope elimination in the gliadin-Rmep and gliadin-subtilisin A digests was assessed using two sandwich ELISA assays employing the R5 monoclonal antibody (RIDASCREEN Gliadin, R-Biopharm, Darmstadt, Germany) or the G12 monoclonal antibody (AgraQuant® ELISA Gluten G12, Romer labs, Union, Mo.). To prevent high background values, the R5 plate wells were blocked with 1% skim milk in PBS prior to incubation with the samples. The assays were performed according to the manufacturers' instructions and as described (21, 24).
To further investigate this, the time courses of degradation of mixed gliadins and the highly immunogenic 33-mer α-gliadin peptide were determined. Furthermore, epitope elimination was monitored by two ELISA assays employing the R5 antibody recognizing QQPFP (SEQ ID NO: 40) and related pentapeptides (27, 28) and the G12 antibody recognizing QPQLPY (SEQ ID NO: 22) contained in the 33-mer peptide (29, 30). Data obtained with Rmep are shown in FIG. 5, and with subtilisin A in FIG. 6.

| Molecule | hydrolysis of Z-YPQ-pNA (Z-YPQ-pNA) | hydrolysis of Z-QQP-pNA (Z-QQP-pNA) | hydrolysis of Z-PPF-pNA (Z-PPF-pNA) | incubation time within which mixed gliadins were degraded (mixed gliadins; 50 mM TrisHCl pH 8.0) | incubation time within which 33-mer peptide degradation was completed ([1]; pH 8.0) | decrease of G12 antibody binding after 30 min ([2]; 30 min) | reduction of G12 antibody binding / G12 epitope degradation after 2 h [2] | degradation of mixed gliadins in the t=0 sample (mixed gliadins; pH 8.0, t=0) | 33-mer peptide degradation after 2 h of incubation ([1]; 2 h) | G12 epitope degradation at t=0 ([2]; t=0) |
| --- | --- | --- | --- | --- | --- | --- | --- | --- | --- | --- |
| Rmep: DEAE pooled fraction F2 of R. mucilaginosa ATCC 25296 extract with highest gluten-degrading enzyme activity; contains subtilisins C6R5V9_9MICC and C6R5W1_9MICC | cleaved | not hydrolyzed | not | ≤ 15 min | ≤ 30 min | 65% | 85% | – | – | – |
| B1 | cleaved | not hydrolyzed | hydrolyzed | – | – | – | 45% | near complete degradation | 74% | 22% |
